Literature values in patent publication US20180295833A1, “METHOD FOR SUPPRESSION OF OR PROTECTION FROM ISCHEMIA/REPERFUSION INJURY OF ORGANS FOR TRANSPLANTATION” (MiZ Company Limited, priority 2017, published 2018).

Conditions: normal temperature and normal pressure of 15° C. to 25° C. and 1 atm

saturation concentration of molecular hydrogen: 1.6 ppm
Structure (SMILES): [HH] [molecular hydrogen]
